Measurements taken from patent US20080269213A1, “8-Hydroxyquinoline compounds and methods thereof” (Wyeth, priority 2006, published 2008).
Like-named read-outs stand apart in the source and are kept apart here.

How the values were obtained:
[1] = target: T1, recombinant human Aggrecanase-2 Agg2-Phe628 (Homo sapiens, UniProt Q9UNA0); assay: Aggrecanase 2 enzyme fluorescence polarization assay; type: binding; parameters: recombinant human Aggrecanase-2, Agg2-Phe628 (41737 Da); This is a truncated form of full-length human aggrecanase-2; made in house
T1 sequence (Q9UNA0 262-628 limits assumed): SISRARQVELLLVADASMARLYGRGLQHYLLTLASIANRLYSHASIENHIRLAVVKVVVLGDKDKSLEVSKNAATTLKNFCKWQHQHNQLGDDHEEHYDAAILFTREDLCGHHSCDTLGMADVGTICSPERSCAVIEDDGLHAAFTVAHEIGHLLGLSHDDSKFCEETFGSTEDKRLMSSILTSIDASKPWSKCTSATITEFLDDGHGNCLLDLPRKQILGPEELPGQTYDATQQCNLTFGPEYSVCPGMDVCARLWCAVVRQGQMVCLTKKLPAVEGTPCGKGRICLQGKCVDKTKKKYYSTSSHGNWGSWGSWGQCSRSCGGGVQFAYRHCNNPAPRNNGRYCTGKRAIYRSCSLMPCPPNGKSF
Source text: The fluorescence polarization assay is used to determine the dissociation constant of the enzyme:inhibitor complex (Ki) and the binding interaction mode (competitive, non-competitive or uncompetitive) of reversible inhibitors. The fluorescence polarization assay monitors the rotational motion of the fluorescent ligand. In the free state the fluorescent ligand has high rotational motion corresponding to a low polarization value and when fully bound to the protein, the fluorescent ligand has a lower rotational motion, corresponding to a higher polarization value. […]
Stock solutions of the fluorescent ligand are prepared in 100% DMSO and aliquots are stored at −80° C. The stock concentration was determined by a NMR ratio method, comparing the area under the control compound peak (TSP; trimethyl silyl proprionate sodium salt) to the area under a well-defined sample peak.
To determine the dissociation constant between Aggrecanase-2 and Compound C, saturation experiments were performed by adding various concentrations of aggrecanase to a constant concentration of Compound C (2 nM), in the assay buffer 50 mM HEPES-NaOH (pH 7.4), 100 mM NaCl, 5 mM CaCl2, 0.005% Brij-35. Anisotropy values were calculated and converted to fraction bound values as described in the data analysis section below. […] The equilibrium dissociation constant was determined to be 60+/−2.9 nM. […]

[2] = target: T1, recombinant human Aggrecanase-2 Agg2-Phe628; assay: Aggrecanase 2 in vitro enzyme assay (Agg-2 FRET, quenched fluorescent peptide substrate); type: biochemical; parameters: purified recombinant human Aggrecanase-2 Agg2-Phe628 (MW=41,737); This is a truncated form of full-length human aggrecanase-2; made in house; host or cells: CHO cells; settings: for Agg-2 FRET Median PCT INHIB: concentration not given
Procedure, shortened: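 Kinetic fluorescence (λex 340, λem 420 nm) monitored over 40 min at 30 °C after adding 25 μM final Abz/Dnp brevican-based quenched peptide. Enzyme: recombinant truncated human Agg2-Phe628 from CHO, 0.5 μg/ml final, mixed with inhibitor first; buffer HEPES pH 7.5 with NaCl, CaCl2, CHAPS, glycerol; compounds in duplicate.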

Agg-1 = target: T2, Agg-1 (Homo sapiens, UniProt O75173); assay: Agg-1 FRET assay; type: biochemical
T2 sequence (O75173 213-837): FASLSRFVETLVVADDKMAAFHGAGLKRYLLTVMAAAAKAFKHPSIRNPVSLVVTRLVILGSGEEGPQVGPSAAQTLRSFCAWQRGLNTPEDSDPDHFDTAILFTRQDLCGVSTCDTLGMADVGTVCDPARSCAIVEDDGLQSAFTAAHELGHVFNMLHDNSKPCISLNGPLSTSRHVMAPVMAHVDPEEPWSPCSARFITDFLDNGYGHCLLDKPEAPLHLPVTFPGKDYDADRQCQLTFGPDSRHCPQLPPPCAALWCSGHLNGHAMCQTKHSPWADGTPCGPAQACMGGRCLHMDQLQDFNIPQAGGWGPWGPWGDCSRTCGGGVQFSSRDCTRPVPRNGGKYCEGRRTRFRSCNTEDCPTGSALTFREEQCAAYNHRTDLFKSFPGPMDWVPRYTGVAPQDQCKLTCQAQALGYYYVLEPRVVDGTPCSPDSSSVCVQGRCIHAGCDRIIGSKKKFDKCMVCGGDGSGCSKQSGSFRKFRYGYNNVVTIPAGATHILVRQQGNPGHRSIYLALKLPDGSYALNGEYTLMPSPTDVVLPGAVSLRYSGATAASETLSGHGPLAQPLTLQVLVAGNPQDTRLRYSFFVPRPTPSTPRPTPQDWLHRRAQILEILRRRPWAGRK
Source text: The Agg-1/Agg-2 FRET data for N-[(8-hydroxyquinolin-2-yl)(phenyl)methyl]-2-phenoxyacetamide and 2-{[(phenoxyacetyl)amino](phenyl)methyl}quinolin-8-yl phenoxyacetate is presented in Table 1.

IC50 (Agg-1; read-out: Agg1 IC50) [µM] | IC50 ([2]; read-out: Agg2 IC50) [µM] | Agg-2 FRET Median PCT INHIB [2] [%] | SMILES | other results
 |  |  | CN([C@H](CCCCNC(=O)OC(C)(C)C)C(=O)NO)S(=O)(=O)c1ccc(OCc2ccccc2)cc1 [Compound B, reference compound] | Ki ([1]; established value of positive control, read-out: Ki for rAgg-2): 0.039 µM; IC50 ([2]; established value of positive control, read-out: IC50 for rAgg-2): 0.037 µM
 |  |  | CN([C@H](CCCCCNC(=O)c1ccc(-c2c3cc(F)c(=O)cc-3oc3cc(O)c(F)cc23)c(C(=O)O)c1)C(=O)NO)S(=O)(=O)c1ccc(OCc2ccccc2)cc1 [Compound C] | Kd ([1]; saturation experiment, 2 nM ligand, read-out: equilibrium dissociation constant between Aggrecanase-2 and fluorescent ligand): 0.06 µM
> 200 | 5.4 |  | O=C(COc1ccccc1)NC(c1ccc(-c2ccccc2)cc1)c1cc(Cl)c2cccnc2c1O (centres unmarked) [N-[biphenyl-4-yl(5-chloro-8-hydroxyquinolin-7-yl)methyl]-2-phenoxyacetamide] | 
> 3 | 1.56 |  | O=C(NC(c1ccc2c(c1)OCO2)c1cc(Cl)c2cccnc2c1O)OCc1ccccc1 (centres unmarked) [benzyl [1,3-benzodioxol-5-yl(5-chloro-8-hydroxyquinolin-7-yl)methyl]carbamate] | IC50 ([2]; read-out: Agg-2 FRET Median IC50): 1.56 µM
> 67 | > 28 |  | O=C(NC(Cc1ccccc1)c1cc(Cl)c2cccnc2c1O)OCc1ccccc1 (centres unmarked) [benzyl [1-(5-chloro-8-hydroxyquinolin-7-yl)-2-phenylethyl]carbamate] | 
> 67 | ~2.5 | 56 | O=C(NC(c1ccccc1Cl)c1cc(Cl)c2cccnc2c1O)OCc1ccccc1 (centres unmarked) [benzyl [(5-chloro-8-hydroxyquinolin-7-yl)(2-chlorophenyl)methyl]carbamate] | 
> 20 | > 20 | 33 | O=C(NC(c1ccco1)c1cc(Cl)c2cccnc2c1O)OCc1ccccc1 (centres unmarked) [benzyl [(5-chloro-8-hydroxyquinolin-7-yl)(2-furyl)methyl]carbamate] | 
> 100 | > 67 | 46 | O=C(NC(c1ccccc1)c1cc(Cl)c2cccnc2c1O)OCc1ccccc1 (centres unmarked) [benzyl [(5-chloro-8-hydroxyquinolin-7-yl)(phenyl)methyl]carbamate] | 
 |  |  | O=C(NC(Cc1cc(Cl)c2cccnc2c1O)c1cccc(CN2CCCC2)c1)c1ccc(-c2ccccc2)cc1 (centres unmarked) [drawing 58] | IC50 (Agg-1; IC50, read-out: Agg-1 IC50 (μM) or % Inhibition): 5.9 µM; IC50 ([2]; IC50, read-out: Agg-2 IC50 (μM) or % Inhibition): 3.4 µM
 |  |  | O=C(NC(Cc1cc(Cl)c2cccnc2c1O)c1cccc(CN2CCCC2)c1)c1ccc(-c2ccccc2)cc1 (centres unmarked) [drawing 65] | inhibition at 200 µM (Agg-1; read-out: Agg-1 IC50 (μM) or % Inhibition): 54%; inhibition at 50 µM ([2]; read-out: Agg-2 IC50 (μM) or % Inhibition): 50%
